The source of these data is patent US6060472A, “Thiadiazole compounds useful as inhibitors of H^+ /K^+ atpase” (Apotex Inc., priority 1998, dated 2000).

What is called IC50 is the concentration that gives 50% inhibition.

Test [1] has as its system gastric acid secretion. As to the kind of experiment: Gastric secretion study in rat (pylorus ligation). Type of test: in vivo, Male Sprague-Dawley rats. The note with it: oral gavage, pylorus-ligated rat, 2 hours post ligation; for Average total gastric contents: Control 2.5; for Average total acid output: Control 298. On the procedure: Gastric Secretion Study in Rat The objective of the study was to establish the antisecretory effects of two experimental compounds compared to Omeprazole. Male Sprague-Dawley rats (110 to 140 g in weight) were ordered from Ace Animals, Inc., Boyertown Pa. and were randomized into […] groups. The Control animals were administered carboxymethylcellulose (CMC) as the treated groups were administered the test materials in a suspension of CMC. Two groups were allotted to a reference standard of Omeprazole and were administered doses of 2 and 8 mg/kg. The other 4 dose groups were allotted to the 2 experimental compounds at doses of 8 and 32 mg/kg. All test materials were administered by oral gavage as this is the intended route in humans. Each animal was dosed using a stainless steel ball-tipped gavage needle attached to an appropriate size syringe. All doses administered were based on fasted body weights taken prior to the dosing. Two hours post drug administration, the animals were anesthetized using a short acting general anesthetic (Methoxital Sodium). The midline incision was made and the gastric duodenal area exposed. A ligature of thread was placed around the pylorus and tied tightly. This ligature around the pylorus stimulates the production of gastric acid. The incision was closed post ligation and the animal was replaced in its cage without access of food or water. All rats were euthanized 2 hours post pylorus ligation using an overdose of sodium pentobarbital. The esophagus was ligated and the intact stomach was removed and opened along the great curvature. Gastric contents were collected in a plastic cup and transferred to a 15 ml conical tube. The contents were centrifuged for approximately 10 minutes. The supernatant was decanted and the volume was measured to the nearest tenth of a milliliter. 1 ml of the gastric contents were pipetted into 4 ml of distilled water and titrated with 0.01 N sodium hydroxide to a pH of 7.0. The acidity was measured by titration and the total acid output calculated.

For test [2], the system named is isolated murine gastric glands of mouse (acid secretion). As to the kind of experiment: In vitro inhibition of gastric acid secretion (14C-aminopyrine accumulation in isolated mouse gastric glands). Type of test: cell-based. The note with it: 1 h, 60 min at 37 °C, secretagogue stimulated. On the procedure:
In Vitro Inhibition of Gastric Acid Secretion by Compounds of Formula I
Acid secretion is measured indirectly by the accumulation of the weak base ^14 C-aminopyrine in the isolated murine gastric glands of mouse. The assay is performed in polypropylene eppendorf tubes containing 0.5 mL of resuspended mouse gastric glands. In addition, tubes contain the tested drug, acid secretagogues (e.g. histamine, di-butyryl cyclic AMP (cAMP), carbachol) and ^14 C-aminopyrine. Tubes are incubated for 60 min. at 37 ° C. and continuously rotated. The reaction is stopped by centrifugation of the gland suspension for five min. at 1500 g. Supernatant is aspirated leaving the pellet containing intact gastric glands. The pellet is washed extensively and digested overnight in 1 mL of Protosol (Amersham). After neutralisation with acetic acid and addition of scintillation fluid, the radioactivity is counted in a beta-counter (Beckman). The amount of radioactivity trapped in the pellet corresponds directly with the amount of acid being secreted. Each experimental point is done in triplicate. In each experiment, energy independent consumption was estimated with 0.1 mM of dinitrophenol and basal acid secretion in the absence of acid stimulants. These values were then subtracted from corresponding results in order to calculate basal or secretagogue stimulated acid secretion.
Mouse glands respond to a variety of conventional secretagogues and post-receptor mediators but not to gastrin. The maximum stimulation of acid secretion is achieved with 1 mM cAMP, 0.1 mM histamine, 0.1 mM IBMX, 10 μM carbachol, 10 μM forskolin, 10 μM calcium ionophore A23187, 1 μM thapsigarin. Each experiment is repeated a number of times and all results are expressed as a % of the maximum stimulation. For the purpose of comparing the relative potency of the compounds, each experiment contains positive controls using omeprazole for post-receptor/cAMP mediated responses and ranitidine which inhibits histamine mediated acid secretion.
Using the above procedure, the IC50 value for these compounds were as follows: […]

For the compound `c1ccc(-c2nsc(N3CCN(c4ccccn4)CC3)n2)cc1` [3-phenyl-5-{4-[pyridin-2-yl]-piperazin-1-yl}-1,2,4-thiadiazole], in test [1] (8 mg/kg), the “Average total gastric contents” value stood at 2.2 mL and the Average total acid output worked out at 223 µEq. Besides, in test [1] (32 mg/kg), the “Average total gastric contents” value turned out to be 1.2 mL and the Average total acid output was found to be 100 µEq. Inhibition in test [2] was half-maximal at 4 µM (IC50).
In test [2], `OC(c1ccccc1)c1nsc(N2CCN(c3ccccn3)CC2)n1` (stereo not drawn) [3-(1-hydroxy-1-phenylmethyl)-5-{4-[pyridin-2-yl]-piperazin-1-yl}-1,2,4-thiadiazole] displayed an IC50 of 30 µM.
Still for that read-out and setting: the same measure for `O=C(c1ccccc1)c1nsc(N2CCN(c3ccccn3)CC2)n1` [3-benzoyl-5-{4-[pyridin-2-yl]-piperazin-1-yl}-1,2,4-thiadiazole]: 6 µM; for `COc1nsc(N2CCN(c3ccccn3)CC2)n1` [3-methoxy-5-{4-[pyridin-2-yl]-piperazin-1-yl}-1,2,4-thiadiazole]: 100 µM.
As for `O=C(c1ccccc1)c1nsc(N2CCN(C(c3ccccc3)c3ccc(Cl)cc3)CC2)n1` (stereo not drawn) [3-benzoyl-5-{4-[1-phenyl-1-(4-chlorophenyl)methyl]piperazin-1-yl}-1,2,4-thiadiazole], it took 50 µM to reach half-maximal inhibition in test [2] (IC50).
As to `COc1ccc2[nH]c([S+]([O-])Cc3ncc(C)c(OC)c3C)nc2c1` (stereo not drawn) [Omeprazole, reference compound], the “Average total gastric contents” value in test [1] (2 mg/kg) was determined as 2.2 mL; in test [1] (8 mg/kg), 1.9 mL. Besides, the results for the Average total acid output in test [1] (2 mg/kg) and in test [1] (8 mg/kg) were 296 µEq and 164 µEq, respectively.
With `O=C(c1cccc(Cl)c1)c1nsc(N2CCN(c3ccccn3)CC2)n1` [3-(3-chlorobenzoyl)-5-{4-[pyridin-2-yl]-piperazin-1-yl}-1,2,4-thiadiazole], in test [1] (8 mg/kg), the “Average total gastric contents” value was determined as 1.9 mL and the Average total acid output is 159 µEq. Further, in test [1] (32 mg/kg), the “Average total gastric contents” value turned out to be 2.9 mL and the Average total acid output came out at 271 µEq. Further, in test [2], the IC50 stood at 25 µM.
